Reference: the NIST ThermoML archive (doi:10.1016/j.jct.2016.12.033)

Assay: mn = molality of the nth substance listed, in mol/kg
Settings: 101.3 kPa, Liquid; for viscosity: Capillary tube (Ostwald / Ubbelohde) method; for mass density: Pycnometric method

Cc1ncc(CO)c(CO)c1O.Cl [5-hydroxy-6-methyl-3,4-pyridinedimethanol hydrochloride] + O
Settings | mass density [kg/m3] | viscosity [mPa·s]
275.15 K, m1 = 0.0101 | 1000.6 | 1.687
275.15 K, m1 = 0.0204 | 1001.28 | 1.695
275.15 K, m1 = 0.03 | 1001.91 | 1.703
275.15 K, m1 = 0.0357 | 1002.27 | 1.706
275.15 K, m1 = 0.0401 | 1002.55 | 1.708
275.15 K, m1 = 0.0454 | 1002.9 | 1.712
275.15 K, m1 = 0.0505 | 1003.22 | 1.719
275.15 K, m1 = 0.0557 | 1003.54 | 1.722
275.15 K, m1 = 0.0695 | 1004.4 | 1.725
275.15 K, m1 = 0.0766 | 1004.84 | 1.73
275.15 K, m1 = 0.0801 | 1005.06 | 1.735
275.15 K, m1 = 0.0857 | 1005.41 | 1.737
275.15 K, m1 = 0.0882 | 1005.58 | 1.739
275.15 K, m1 = 0.1004 | 1006.38 | 1.75
277.15 K, m1 = 0.0099 | 1000.61 | 1.576
277.15 K, m1 = 0.0202 | 1001.27 | 1.58
277.15 K, m1 = 0.0252 | 1001.59 | 1.584
277.15 K, m1 = 0.0299 | 1001.89 | 1.588
277.15 K, m1 = 0.035 | 1002.22 | 1.592
277.15 K, m1 = 0.04 | 1002.54 | 1.597
277.15 K, m1 = 0.0497 | 1003.15 | 1.603
277.15 K, m1 = 0.0598 | 1003.79 | 1.606
277.15 K, m1 = 0.0658 | 1004.16 | 1.607
277.15 K, m1 = 0.0683 | 1004.32 | 1.609
277.15 K, m1 = 0.0753 | 1004.75 | 1.615
277.15 K, m1 = 0.0797 | 1005.02 | 1.619
277.15 K, m1 = 0.0882 | 1005.55 | 1.625
277.15 K, m1 = 0.1004 | 1006.29 | 1.629
279.15 K, m1 = 0.01 | 1000.56 | 1.477
279.15 K, m1 = 0.0199 | 1001.18 | 1.479
279.15 K, m1 = 0.0253 | 1001.51 | 1.484
279.15 K, m1 = 0.0298 | 1001.8 | 1.488
279.15 K, m1 = 0.0351 | 1002.13 | 1.495
279.15 K, m1 = 0.0397 | 1002.42 | 1.5
279.15 K, m1 = 0.0492 | 1003 | 1.499
279.15 K, m1 = 0.055 | 1003.36 | 1.507
279.15 K, m1 = 0.0578 | 1003.53 | 1.505
279.15 K, m1 = 0.0648 | 1003.96 | 1.515
279.15 K, m1 = 0.069 | 1004.22 | 1.522
279.15 K, m1 = 0.0798 | 1004.9 | 1.524
279.15 K, m1 = 0.0897 | 1005.51 | 1.53
279.15 K, m1 = 0.0996 | 1006.16 | 1.535

O=C1O[C@H]([C@@H](O)CO)C([O-])=C1O.[Na+] [sodium L-ascorbate] + O
Settings | mass density [kg/m3] | viscosity [mPa·s]
275.15 K, m1 = 0.01 | 1001.05 | 1.68
275.15 K, m1 = 0.0201 | 1002.2 | 1.691
275.15 K, m1 = 0.0303 | 1003.31 | 1.703
275.15 K, m1 = 0.0348 | 1003.83 | 1.703
275.15 K, m1 = 0.04 | 1004.41 | 1.706
275.15 K, m1 = 0.0451 | 1004.94 | 1.708
275.15 K, m1 = 0.05 | 1005.5 | 1.718
275.15 K, m1 = 0.0598 | 1006.59 | 1.727
275.15 K, m1 = 0.0699 | 1007.71 | 1.736
275.15 K, m1 = 0.0749 | 1008.27 | 1.745
275.15 K, m1 = 0.0835 | 1009.12 | 1.748
275.15 K, m1 = 0.0849 | 1009.32 | 1.747
275.15 K, m1 = 0.0902 | 1009.85 | 1.757
275.15 K, m1 = 0.0999 | 1010.96 | 1.765
277.15 K, m1 = 0.01 | 1001.09 | 1.572
277.15 K, m1 = 0.02 | 1002.17 | 1.578
277.15 K, m1 = 0.0301 | 1003.31 | 1.586
277.15 K, m1 = 0.0351 | 1003.85 | 1.591
277.15 K, m1 = 0.0402 | 1004.45 | 1.595
277.15 K, m1 = 0.05 | 1005.5 | 1.601
277.15 K, m1 = 0.0601 | 1006.59 | 1.609
277.15 K, m1 = 0.065 | 1007.13 | 1.616
277.15 K, m1 = 0.0697 | 1007.7 | 1.619
277.15 K, m1 = 0.075 | 1008.2 | 1.626
277.15 K, m1 = 0.0798 | 1008.75 | 1.628
277.15 K, m1 = 0.0851 | 1009.29 | 1.634
277.15 K, m1 = 0.0898 | 1009.82 | 1.641
277.15 K, m1 = 0.1003 | 1010.95 | 1.646
279.15 K, m1 = 0.0105 | 1001.12 | 1.479
279.15 K, m1 = 0.0201 | 1002.16 | 1.482
279.15 K, m1 = 0.0301 | 1003.23 | 1.491
279.15 K, m1 = 0.0348 | 1003.74 | 1.494
279.15 K, m1 = 0.0402 | 1004.33 | 1.498
279.15 K, m1 = 0.045 | 1004.84 | 1.503
279.15 K, m1 = 0.0501 | 1005.39 | 1.506
279.15 K, m1 = 0.0602 | 1006.49 | 1.516
279.15 K, m1 = 0.065 | 1007.01 | 1.52
279.15 K, m1 = 0.0699 | 1007.54 | 1.531
279.15 K, m1 = 0.0752 | 1008.12 | 1.532
279.15 K, m1 = 0.0852 | 1009.19 | 1.538
279.15 K, m1 = 0.0904 | 1009.74 | 1.541
279.15 K, m1 = 0.1005 | 1010.79 | 1.548

Cc1ncc(C[n+]2csc(CCO)c2C)c(N)n1.Cl.[Cl-] [thiamine hydrochloride] + O
Settings | mass density [kg/m3] | viscosity [mPa·s]
275.15 K, m1 = 0.0101 | 1001.03 | 1.692
275.15 K, m1 = 0.0201 | 1002.1 | 1.7
275.15 K, m1 = 0.0249 | 1002.6 | 1.712
275.15 K, m1 = 0.0302 | 1003.15 | 1.718
275.15 K, m1 = 0.04 | 1004.19 | 1.728
275.15 K, m1 = 0.0451 | 1004.73 | 1.736
275.15 K, m1 = 0.0499 | 1005.24 | 1.745
275.15 K, m1 = 0.055 | 1005.78 | 1.752
275.15 K, m1 = 0.0611 | 1006.45 | 1.759
275.15 K, m1 = 0.0645 | 1006.81 | 1.76
275.15 K, m1 = 0.0701 | 1007.4 | 1.771
275.15 K, m1 = 0.0751 | 1007.91 | 1.776
275.15 K, m1 = 0.0792 | 1008.33 | 1.776
275.15 K, m1 = 0.0897 | 1009.33 | 1.788
275.15 K, m1 = 0.1001 | 1010.2 | 1.8
277.15 K, m1 = 0.0101 | 1001.04 | 1.575
277.15 K, m1 = 0.0201 | 1002.1 | 1.591
277.15 K, m1 = 0.025 | 1002.61 | 1.593
277.15 K, m1 = 0.0299 | 1003.12 | 1.604
277.15 K, m1 = 0.0401 | 1004.18 | 1.61
277.15 K, m1 = 0.0452 | 1004.7 | 1.621
277.15 K, m1 = 0.0501 | 1005.2 | 1.627
277.15 K, m1 = 0.055 | 1005.69 | 1.632
277.15 K, m1 = 0.0598 | 1006.18 | 1.64
277.15 K, m1 = 0.0653 | 1006.74 | 1.646
277.15 K, m1 = 0.0704 | 1007.25 | 1.66
277.15 K, m1 = 0.0803 | 1008.25 | 1.672
277.15 K, m1 = 0.0822 | 1008.45 | 1.671
277.15 K, m1 = 0.0898 | 1009.24 | 1.678
279.15 K, m1 = 0.008 | 1000.76 | 1.481
279.15 K, m1 = 0.02 | 1002 | 1.494
279.15 K, m1 = 0.0249 | 1002.52 | 1.497
279.15 K, m1 = 0.0301 | 1003.05 | 1.505
279.15 K, m1 = 0.04 | 1004.08 | 1.512
279.15 K, m1 = 0.045 | 1004.59 | 1.517
279.15 K, m1 = 0.0501 | 1005.11 | 1.521
279.15 K, m1 = 0.0552 | 1005.63 | 1.527
279.15 K, m1 = 0.0603 | 1006.15 | 1.529
279.15 K, m1 = 0.0652 | 1006.65 | 1.542
279.15 K, m1 = 0.0703 | 1007.16 | 1.549
279.15 K, m1 = 0.0751 | 1007.64 | 1.556
279.15 K, m1 = 0.0798 | 1008.1 | 1.563
279.15 K, m1 = 0.0897 | 1009.09 | 1.57
279.15 K, m1 = 0.1001 | 1010.12 | 1.581
